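Briefly, cells in 96-well plates were exposed to five compound concentrations for 48 h, and endpoints were estimated by linear interpolation. Here, GI50 denotes the concentration required for 50% inhibition of growth.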 The source made the active and inactive calls. Rule as the data show it: active = GI50 up to about 1.1 µM and inactive = higher.
Tests used:
Experiment in all cases: inhibition of tumour cell growth, NCI panel, 48 h
786-0 = tested on: 786-0
A498 = tested on: A498
COLO 205 = tested on: COLO 205
DU-145 = tested on: DU-145
EKVX = tested on: EKVX
HCC 2998 = tested on: HCC 2998
HCT-116 = tested on: HCT-116
HOP-62 = tested on: HOP-62
M14 = tested on: M14
MCF7 = tested on: MCF7
MDA-MB-231 = tested on: MDA-MB-231
MDA-N = tested on: MDA-N
Malme-3M = tested on: Malme-3M
NCI-H460 = tested on: NCI-H460
NCI/ADR-RES = tested on: NCI/ADR-RES
OVCAR-3 = tested on: OVCAR-3
OVCAR-5 = tested on: OVCAR-5
PC-3 = tested on: PC-3
RXF 393 = tested on: RXF 393
SF-295 = tested on: SF-295
SK-MEL-28 = tested on: SK-MEL-28
SK-MEL-2 = tested on: SK-MEL-2
SK-OV-3 = tested on: SK-OV-3
SN12C = tested on: SN12C
SNB-19 = tested on: SNB-19
SNB-75 = tested on: SNB-75
SW-620 = tested on: SW-620
T47D = tested on: T47D
TK-10 = tested on: TK-10
UACC-257 = tested on: UACC-257
UO-31 = tested on: UO-31
A549 = tested on: A549
ACHN = tested on: ACHN
CAKI-1 = tested on: CAKI-1
CCRF-CEM = tested on: CCRF-CEM
HCT-15 = tested on: HCT-15
HL-60 = tested on: HL-60
HOP-92 = tested on: HOP-92
HT-29 = tested on: HT-29
Hs-578T = tested on: Hs-578T
IGROV-1 = tested on: IGROV-1
K562 = tested on: K562
KM12 = tested on: KM12
LOX IMVI = tested on: LOX IMVI
MDA-MB-435 = tested on: MDA-MB-435
MOLT-4 = tested on: MOLT-4
NCI-H226 = tested on: NCI-H226
NCI-H23 = tested on: NCI-H23
NCI-H522 = tested on: NCI-H522
OVCAR-4 = tested on: OVCAR-4
OVCAR-8 = tested on: OVCAR-8
RPMI-8226 = tested on: RPMI-8226
SF-268 = tested on: SF-268
SF-539 = tested on: SF-539
SK-MEL-5 = tested on: SK-MEL-5
SR = tested on: SR
U-251 = tested on: U-251
UACC-62 = tested on: UACC-62

NS(=O)(=O)c1ccc(/C=C/c2ccc(F)cc2)cc1
GI50 (786-0): 21.2 µM (inactive) | GI50 (A498): 29.4 µM (inactive) | GI50 (COLO 205): 24.8 µM (inactive) | GI50 (DU-145): 50.1 µM (inactive) | GI50 (EKVX): 47.3 µM (inactive) | GI50 (HCC 2998): 51.8 µM (inactive) | GI50 (HCT-116): 16.9 µM (inactive) | GI50 (HOP-62): 34 µM (inactive) | GI50 (M14): 79.4 µM (inactive) | GI50 (MCF7): 23.9 µM (inactive) | GI50 (MDA-MB-231): 9.53 µM (inactive) | GI50 (MDA-N): 43.5 µM (inactive) | GI50 (Malme-3M): 40.5 µM (inactive) | GI50 (NCI-H460): 23.5 µM (inactive) | GI50 (NCI/ADR-RES): 26.3 µM (inactive) | GI50 (OVCAR-3): 16.7 µM (inactive) | GI50 (OVCAR-5): > 100 µM (inactive) | GI50 (PC-3): 39 µM (inactive) | GI50 (RXF 393): 15.6 µM (inactive) | GI50 (SF-295): 28.9 µM (inactive) | GI50 (SK-MEL-28): 47.4 µM (inactive) | GI50 (SK-MEL-2): 20.7 µM (inactive) | GI50 (SK-OV-3): 23.8 µM (inactive) | GI50 (SN12C): 25.8 µM (inactive) | GI50 (SNB-19): 33.9 µM (inactive) | GI50 (SNB-75): 31.6 µM (inactive) | GI50 (SW-620): 17.1 µM (inactive) | GI50 (T47D): 14.9 µM (inactive) | GI50 (TK-10): 21.3 µM (inactive) | GI50 (UACC-257): > 100 µM (inactive) | GI50 (UO-31): 20.7 µM (inactive)

O=C1NCC2(CCN(CCCC3(c4ccc(F)cc4)OCCO3)CC2)N1c1ccccc1
GI50 (786-0): > 100 µM (inactive) | GI50 (A498): 86.3 µM (inactive) | GI50 (A549): > 100 µM (inactive) | GI50 (ACHN): > 100 µM (inactive) | GI50 (CAKI-1): 50.1 µM (inactive) | GI50 (CCRF-CEM): > 100 µM (inactive) | GI50 (COLO 205): > 100 µM (inactive) | GI50 (DU-145): > 100 µM (inactive) | GI50 (EKVX): > 100 µM (inactive) | GI50 (HCC 2998): > 100 µM (inactive) | GI50 (HCT-116): > 100 µM (inactive) | GI50 (HCT-15): > 100 µM | GI50 (HL-60): > 100 µM (inactive) | GI50 (HOP-62): > 100 µM (inactive) | GI50 (HOP-92): 36.7 µM (inactive) | GI50 (HT-29): 84.5 µM (inactive) | GI50 (Hs-578T): > 100 µM (inactive) | GI50 (IGROV-1): > 100 µM (inactive) | GI50 (K562): > 100 µM (inactive) | GI50 (KM12): > 100 µM (inactive) | GI50 (LOX IMVI): > 100 µM (inactive) | GI50 (M14): > 100 µM (inactive) | GI50 (MDA-MB-231): > 100 µM (inactive) | GI50 (MDA-MB-435): > 100 µM (inactive) | GI50 (MDA-N): > 100 µM (inactive) | GI50 (MOLT-4): > 100 µM (inactive) | GI50 (Malme-3M): > 100 µM (inactive) | GI50 (NCI-H226): > 100 µM (inactive) | GI50 (NCI-H23): > 100 µM (inactive) | GI50 (NCI-H460): > 100 µM (inactive) | GI50 (NCI-H522): > 100 µM (inactive) | GI50 (NCI/ADR-RES): > 100 µM (inactive) | GI50 (OVCAR-3): > 100 µM (inactive) | GI50 (OVCAR-4): > 100 µM (inactive) | GI50 (OVCAR-5): > 100 µM (inactive) | GI50 (OVCAR-8): > 100 µM (inactive) | GI50 (PC-3): > 100 µM (inactive) | GI50 (RPMI-8226): > 100 µM (inactive) | GI50 (RXF 393): > 100 µM (inactive) | GI50 (SF-268): > 100 µM (inactive) | GI50 (SF-295): > 100 µM (inactive) | GI50 (SF-539): > 100 µM (inactive) | GI50 (SK-MEL-28): > 100 µM (inactive) | GI50 (SK-MEL-2): > 100 µM (inactive) | GI50 (SK-MEL-5): > 100 µM (inactive) | GI50 (SN12C): > 100 µM (inactive) | GI50 (SNB-19): > 100 µM (inactive) | GI50 (SNB-75): 66.5 µM (inactive) | GI50 (SR): > 100 µM (inactive) | GI50 (SW-620): 32.7 µM (inactive) | GI50 (T47D): > 100 µM (inactive) | GI50 (TK-10): > 100 µM (inactive) | GI50 (U-251): > 100 µM (inactive) | GI50 (UACC-257): 70.6 µM (inactive) | GI50 (UACC-62): > 100 µM (inactive)

— ChEMBL document CHEMBL1201862, “PubChem BioAssay data set” (2004)
